± gives the expanded uncertainty stated by the source.
Tests used:
[1] = refractive index (Na D-line) (dimensionless); xn = mol fraction of the nth substance listed; conditions: 298.15 K, 101 kPa, Liquid, refractometer
[2] = heat capacity at constant pressure per volume; xn = mol fraction of the nth substance listed; conditions: 298.15 K, 101 kPa, Liquid, Flow calorimetry
[3] = excess molar enthalpy (molar enthalpy of mixing); xn = mol fraction of the nth substance listed; conditions: 298.15 K, 101 kPa, Liquid, Flow calorimetry
[4] = xn = mol fraction of the nth substance listed; conditions: 298.15 K, 101 kPa, Liquid, Vibrating tube method

For `O=C1CCCC1` [cyclopentanone] + C1CCOCC1, the refractive index ([1]; x2 = 0.0723) was 1.4337 ± 0.00021, the refractive index ([1]; x2 = 0.153) was 1.43231 ± 0.00021 and the refractive index ([1]; x2 = 0.2311) was 1.43098 ± 0.00021. It also gave a refractive index ([1]; x2 = 0.3083) of 1.42967 ± 0.00021, a refractive index ([1]; x2 = 0.3514) of 1.42895 ± 0.00021 and a refractive index ([1]; x2 = 0.3917) of 1.42828 ± 0.00021. The refractive index ([1]; x2 = 0.4314) was 1.42762 ± 0.00021, the refractive index ([1]; x2 = 0.4691) was 1.427 ± 0.00021 and the refractive index ([1]; x2 = 0.5026) was 1.42645 ± 0.00021. It also gave a refractive index ([1]; x2 = 0.5485) of 1.42571 ± 0.00021, a refractive index ([1]; x2 = 0.5911) of 1.42502 ± 0.00021 and a refractive index ([1]; x2 = 0.6215) of 1.42454 ± 0.00021. It also gave a refractive index ([1]; x2 = 0.6618) of 1.4239 ± 0.00021, a refractive index ([1]; x2 = 0.7097) of 1.42314 ± 0.00021 and a refractive index ([1]; x2 = 0.7897) of 1.42189 ± 0.00021. The refractive index ([1]; x2 = 0.8648) was 1.42073 ± 0.00021, the refractive index ([1]; x2 = 0.9456) was 1.41948 ± 0.00021 and the heat capacity ([2]; x2 = 0.0715) was 1697900 ± 2600 J/K/m3. It also gave a heat capacity ([2]; x2 = 0.1485) of 1683000 ± 2600 J/K/m3, a heat capacity ([2]; x2 = 0.2279) of 1667700 ± 2600 J/K/m3 and a heat capacity ([2]; x2 = 0.3826) of 1638300 ± 2500 J/K/m3. The heat capacity ([2]; x2 = 0.4613) was 1623300 ± 2500 J/K/m3, the heat capacity ([2]; x2 = 0.5422) was 1608000 ± 2500 J/K/m3 and the heat capacity ([2]; x2 = 0.6258) was 1592400 ± 2500 J/K/m3. It also gave a heat capacity ([2]; x2 = 0.6965) of 1579400 ± 2400 J/K/m3, a heat capacity ([2]; x2 = 0.777) of 1564600 ± 2400 J/K/m3 and a heat capacity ([2]; x2 = 0.8588) of 1549700 ± 2400 J/K/m3. For the same compound, the heat capacity ([2]; x2 = 0.9378) was 1535300 ± 2400 J/K/m3, the excess molar enthalpy ([3]; x2 = 0.1) was 0.0531 ± 0.0013 kJ/mol and the excess molar enthalpy ([3]; x2 = 0.15) was 0.0757 ± 0.0014 kJ/mol. It also gave an excess molar enthalpy ([3]; x2 = 0.2) of 0.0961 ± 0.0016 kJ/mol, an excess molar enthalpy ([3]; x2 = 0.25) of 0.113 ± 0.0017 kJ/mol and an excess molar enthalpy ([3]; x2 = 0.3) of 0.127 ± 0.0018 kJ/mol. For the same compound, the excess molar enthalpy ([3]; x2 = 0.35) was 0.139 ± 0.0019 kJ/mol, the excess molar enthalpy ([3]; x2 = 0.4) was 0.148 ± 0.0019 kJ/mol and the excess molar enthalpy ([3]; x2 = 0.45) was 0.154 ± 0.002 kJ/mol. It also gave an excess molar enthalpy ([3]; x2 = 0.5) of 0.158 ± 0.002 kJ/mol, an excess molar enthalpy ([3]; x2 = 0.55) of 0.158 ± 0.002 kJ/mol and an excess molar enthalpy ([3]; x2 = 0.6) of 0.155 ± 0.002 kJ/mol. The excess molar enthalpy ([3]; x2 = 0.65) was 0.149 ± 0.0019 kJ/mol, the excess molar enthalpy ([3]; x2 = 0.7) was 0.141 ± 0.0019 kJ/mol and the excess molar enthalpy ([3]; x2 = 0.75) was 0.128 ± 0.0018 kJ/mol. For the same compound, the excess molar enthalpy ([3]; x2 = 0.8) was 0.112 ± 0.0017 kJ/mol, the excess molar enthalpy ([3]; x2 = 0.85) was 0.0916 ± 0.0016 kJ/mol and the excess molar enthalpy ([3]; x2 = 0.9) was 0.0659 ± 0.0014 kJ/mol. It also gave a mass density ([4]; x2 = 0.0621) of 939.88 ± 0.48 kg/m3, a mass density ([4]; x2 = 0.1532) of 933.66 ± 0.48 kg/m3 and a mass density ([4]; x2 = 0.2354) of 928.1 ± 0.48 kg/m3. It also gave a mass density ([4]; x2 = 0.309) of 923.12 ± 0.47 kg/m3, a mass density ([4]; x2 = 0.3167) of 922.64 ± 0.47 kg/m3 and a mass density ([4]; x2 = 0.346) of 920.67 ± 0.47 kg/m3. The mass density ([4]; x2 = 0.3516) was 920.32 ± 0.47 kg/m3, the mass density ([4]; x2 = 0.3936) was 917.52 ± 0.47 kg/m3 and the mass density ([4]; x2 = 0.3997) was 917.16 ± 0.47 kg/m3. For the same compound, the mass density ([4]; x2 = 0.4297) was 915.15 ± 0.47 kg/m3, the mass density ([4]; x2 = 0.4312) was 915.07 ± 0.47 kg/m3 and the mass density ([4]; x2 = 0.4661) was 912.74 ± 0.47 kg/m3. It also gave a mass density ([4]; x2 = 0.4676) of 912.7 ± 0.47 kg/m3, a mass density ([4]; x2 = 0.5105) of 909.9 ± 0.47 kg/m3 and a mass density ([4]; x2 = 0.5187) of 909.32 ± 0.47 kg/m3. The mass density ([4]; x2 = 0.5466) was 907.55 ± 0.47 kg/m3, the mass density ([4]; x2 = 0.5498) was 907.3 ± 0.47 kg/m3 and the mass density ([4]; x2 = 0.5959) was 904.37 ± 0.46 kg/m3. The mass density ([4]; x2 = 0.6289) was 902.25 ± 0.46 kg/m3, the mass density ([4]; x2 = 0.6335) was 901.96 ± 0.46 kg/m3 and the mass density ([4]; x2 = 0.6618) was 900.16 ± 0.46 kg/m3. The mass density ([4]; x2 = 0.708) was 897.22 ± 0.46 kg/m3, the mass density ([4]; x2 = 0.7941) was 891.79 ± 0.46 kg/m3 and the mass density ([4]; x2 = 0.8569) was 887.85 ± 0.46 kg/m3. For the same compound, the mass density ([4]; x2 = 0.9351) was 882.98 ± 0.45 kg/m3 and the mass density ([4]; x2 = 0.939) was 882.71 ± 0.45 kg/m3.

From the NIST ThermoML archive (doi:10.1021/je025649t)
